Several values for one entry are separate records, joined by “and”; a condition that tells them apart may be missing. Identical values can stand only once.
Legend:
[1] = tested on: Spontaneously Hypertensive Rats (SHR); test: Experiment 4: antihypertensive effect of the sample of Example 1 on SHR; type: in vivo, rat
Protocol: Rats: Spontaneously Hypertensive Rats (SHR), Wistar rats were used as normal controls.
(§1) Rat Blood Pressure Measurement: BP-98A Non-invasive Tail Artery Blood Pressure Meter, Japan Soft Rotation Co., Ltd.
Group therapy is described in the following description. Blood pressure and body weight are measured and grouped after one week of adaptive feeding in all rats. […] Eight rats in each group are treated for 2 weeks.
(§2) The following description describes the blood pressure measurement. The rats are preheated at 38° C. for 5-10 minutes to avoid blood flow in the tail of the rat. The blood pressure of the rats is measured three times in a waking and quiet state, and the average value of three times is used as the blood pressure of the rats. Blood pressure is measured twice a week, once 2 hours after administration and once 24 hours after administration, to observe the immediate antihypertensive effect and after 24 hours antihypertensive effect (and the peak-to-valley ratio).
(§3) The following description discusses the trough-peak ratio calculation of depressurization amplitude. The difference of blood pressure before treatment minus 24 hours after administration is the trough of the range of blood pressure reduction, which is the lowest point before the next administration; the difference of blood pressure before treatment and 2 hours after administration is the peak value of blood pressure reduction, that is, the maximum point of blood pressure reduction after administration. Valley value of depressurization amplitude divided by peak value of depressurization amplitude is equal to valley-peak ratio of depressurization amplitude.

[2] = tested on: Spontaneously Hypertensive Rats (SHR); test: Experiment 2: hypotensive effect of samples of Embodiment 1 and 2, tail artery blood pressure; type: in vivo, rat; details: for valley-peak ratio of Systolic Blood Pressure Reduction: 24 h divided by 2 h after administration
Protocol: Rats: 10 weeks old Spontaneously Hypertensive Rats (SHR), Wistar rats were used as normal controls.
as §1
Group therapy is described in the following description. Blood pressure and body weight are measured and grouped after one week of adaptive feeding in all rats. […] Eight rats in each group are treated for 8 weeks. Blood pressure is observed for 1 week after withdrawal.
as §2, with “Blood pressure measurement:” for “The following description describes the blood pressure measurement.”, “Blood pressure measurement: The rats” for “blood pressure measurement. The rats”, “of three measurement times is” for “of three times is”
as §3, with “The valley-peak ratio calculation” for “The following description discusses the trough-peak ratio calculation”, “of depressurization amplitude: The difference” for “of depressurization amplitude. The difference”

[3] = 2 h after administration, treatment for 1 week, medium dose 0.8 g/kg crude drug, amlodipine 0.5 mg/kg
[4] = 2 h after administration, treatment for 2 weeks, medium dose 0.8 g/kg crude drug, amlodipine 0.5 mg/kg
[5] = 24 h after administration, treatment for 1 week, medium dose 0.8 g/kg crude drug, amlodipine 0.5 mg/kg
[6] = 24 h after administration, treatment for 2 weeks, medium dose 0.8 g/kg crude drug, amlodipine 0.5 mg/kg
[7] = before treatment, medium dose group 0.8 g/kg crude drug, amlodipine group 0.5 mg/kg
[8] = treatment for 1 week, medium dose 0.8 g/kg crude drug, amlodipine 0.5 mg/kg
[9] = treatment for 2 weeks, medium dose 0.8 g/kg crude drug, amlodipine 0.5 mg/kg
[10] = 2 h after administration, treatment for 1 week, 0.8 g/kg crude drug, amlodipine 0.5 mg/kg
[11] = 2 h after administration, treatment for 1 week, 0.8 g/kg crude drug, amlodipine 0.5 mg/kg, listed as amlodipine
[12] = 2 h after administration, treatment for 2 weeks, 0.8 g/kg crude drug, amlodipine 0.5 mg/kg
[13] = 2 h after administration, treatment for 3 weeks, 0.8 g/kg crude drug, amlodipine 0.5 mg/kg
[14] = 2 h after administration, treatment for 4 weeks, 0.8 g/kg crude drug, amlodipine 0.5 mg/kg
[15] = 2 h after administration, treatment for 5 weeks, 0.8 g/kg crude drug, amlodipine 0.5 mg/kg
[16] = 2 h after administration, treatment for 6 weeks, 0.8 g/kg crude drug, amlodipine 0.5 mg/kg
[17] = 2 h after administration, treatment for 7 weeks, 0.8 g/kg crude drug, amlodipine 0.5 mg/kg
[18] = 2 h after administration, treatment for 8 weeks, 0.8 g/kg crude drug, amlodipine 0.5 mg/kg
[19] = 2 h after administration, treatment for 8 weeks, 0.8 g/kg crude drug, amlodipine 0.5 mg/kg, listed as amlodipine
[20] = 24 h after administration, treatment for 1 week, 0.8 g/kg crude drug, amlodipine 0.5 mg/kg
[21] = 24 h after administration, treatment for 2 weeks, 0.8 g/kg crude drug, amlodipine 0.5 mg/kg
[22] = 24 h after administration, treatment for 3 weeks, 0.8 g/kg crude drug, amlodipine 0.5 mg/kg
[23] = 24 h after administration, treatment for 4 weeks, 0.8 g/kg crude drug, amlodipine 0.5 mg/kg
[24] = 24 h after administration, treatment for 5 weeks, 0.8 g/kg crude drug, amlodipine 0.5 mg/kg
[25] = 24 h after administration, treatment for 6 weeks, 0.8 g/kg crude drug, amlodipine 0.5 mg/kg
[26] = 24 h after administration, treatment for 7 weeks, 0.8 g/kg crude drug, amlodipine 0.5 mg/kg
[27] = 24 h after administration, treatment for 8 weeks, 0.8 g/kg crude drug, amlodipine 0.5 mg/kg
[28] = 24 h after administration, treatment for 8 weeks, 0.8 g/kg crude drug, amlodipine 0.5 mg/kg, listed as amlodipine
[29] = stopping for 1 week after 8 weeks of treatment
[30] = stopping for 3 days after 8 weeks of treatment
[31] = stopping for 3 days after 8 weeks of treatment, listed as amlodipine
[32] = treatment for 1 week, 0.8 g/kg crude drug, amlodipine 0.5 mg/kg
[33] = treatment for 2 weeks, 0.8 g/kg crude drug, amlodipine 0.5 mg/kg
[34] = treatment for 3 weeks, 0.8 g/kg crude drug, amlodipine 0.5 mg/kg
[35] = treatment for 4 weeks, 0.8 g/kg crude drug, amlodipine 0.5 mg/kg
[36] = treatment for 5 weeks, 0.8 g/kg crude drug, amlodipine 0.5 mg/kg
[37] = treatment for 6 weeks, 0.8 g/kg crude drug, amlodipine 0.5 mg/kg
[38] = treatment for 7 weeks, 0.8 g/kg crude drug, amlodipine 0.5 mg/kg
[39] = treatment for 8 weeks, 0.8 g/kg crude drug, amlodipine 0.5 mg/kg

Molecule `CCOC(=O)C1=C(COCCN)NC(C)=C(C(=O)OC)C1c1ccccc1Cl` (centres unmarked) [Amlodipine, amlodipine besylate] has a diastolic blood pressure [1, 3] of 145.9 mmHg, a systolic blood pressure [1, 3] of 176.7 ± 7.42 mmHg and a diastolic blood pressure [1, 4] of 144.8 mmHg. It also gave a systolic blood pressure [1, 4] of 178.7 ± 5.64 mmHg, a diastolic blood pressure [1, 5] of 156.5 mmHg and a systolic blood pressure [1, 5] of 202.6 mmHg. It also gave a diastolic blood pressure [1, 6] of 157.3 mmHg, a systolic blood pressure [1, 6] of 204.9 mmHg and a diastolic blood pressure [1, 7] of 158.2 mmHg. The systolic blood pressure [1, 7] was 211.7 ± 7.57 mmHg and 211.7 mmHg and 211.7 ± 17.57 mmHg, the “2-hour hypotensive amplitude (peak of systolic blood pressure reduction)” value [1, 8] was 35.0 mmHg and the “24-hour hypotensive amplitude (trough of systolic blood pressure reduction)” value [1, 8] was 9.1 mmHg. The “valley-peak ratio of Systolic Blood Pressure Reduction” value [1, 8] was 0.26, the “2-hour hypotensive amplitude (peak of systolic blood pressure reduction)” value [1, 9] was 33.0 mmHg and the “24-hour hypotensive amplitude (trough of systolic blood pressure reduction)” value [1, 9] was 6.8 mmHg. The “valley-peak ratio of Systolic Blood Pressure Reduction” value [1, 9] was 0.21, the diastolic blood pressure [2, 10] was 143.2 mmHg and the systolic blood pressure [2, 10] was 175.1 mmHg. The diastolic blood pressure [2, 11] was 143.2±6.41 mmHg, the systolic blood pressure [2, 11] was 175.1±4.44 mmHg and the diastolic blood pressure [2, 12] was 145.5 mmHg. It also gave a systolic blood pressure [2, 12] of 178.3 mmHg, a diastolic blood pressure [2, 13] of 144.7 mmHg and a systolic blood pressure [2, 13] of 177.8 mmHg. The diastolic blood pressure [2, 14] was 146.2 mmHg, the systolic blood pressure [2, 14] was 175.7 mmHg and the diastolic blood pressure [2, 15] was 137.6 mmHg. It also gave a systolic blood pressure [2, 15] of 174.3 mmHg, a diastolic blood pressure [2, 16] of 143.1 mmHg and a systolic blood pressure [2, 16] of 178.8 mmHg. For the same molecule, the diastolic blood pressure [2, 17] was 139.9 mmHg, the systolic blood pressure [2, 17] was 175.8 mmHg and the diastolic blood pressure [2, 18] was 144.7 mmHg. For the same molecule, the systolic blood pressure [2, 18] was 178.1 mmHg, the diastolic blood pressure [2, 19] was 144.7±3.43 mmHg and the systolic blood pressure [2, 19] was 178.1±2.67 mmHg. For the same molecule, the diastolic blood pressure [2, 20] was 162.3 mmHg, the systolic blood pressure [2, 20] was 200.7 mmHg and the diastolic blood pressure [2, 21] was 158.6 mmHg. The systolic blood pressure [2, 21] was 202.6 mmHg, the diastolic blood pressure [2, 22] was 159.0 mmHg and the systolic blood pressure [2, 22] was 201.6 mmHg. The diastolic blood pressure [2, 23] was 161.3 mmHg, the systolic blood pressure [2, 23] was 209.0 mmHg and the diastolic blood pressure [2, 24] was 161.8 mmHg. It also gave a systolic blood pressure [2, 24] of 207.8 mmHg, a diastolic blood pressure [2, 25] of 165.0 mmHg and a systolic blood pressure [2, 25] of 202.8 mmHg. It also gave a diastolic blood pressure [2, 26] of 156.3 mmHg, a systolic blood pressure [2, 26] of 199.5 mmHg and a diastolic blood pressure [2, 27] of 154.3 mmHg. It also gave a systolic blood pressure [2, 27] of 202.0 mmHg, a diastolic blood pressure [2, 28] of 154.3±5.50 mmHg and a systolic blood pressure [2, 28] of 202.0±5.88 mmHg. The diastolic blood pressure ([2]; before treatment) was 156.0 mmHg, the systolic blood pressure ([2]; before treatment) was 209.8 mmHg and 209.8 ± 8.92 mmHg and the diastolic blood pressure [2, 29] was 155.4 mmHg. For the same molecule, the systolic blood pressure [2, 29] was 214.2 mmHg, the diastolic blood pressure [2, 30] was 158.7 mmHg and the systolic blood pressure [2, 30] was 205.4 mmHg. The diastolic blood pressure [2, 31] was 158.7±2.79 mmHg, the systolic blood pressure [2, 31] was 205.4±1.85 mmHg and the “2-hour hypotensive amplitude (peak of systolic blood pressure reduction)” value [2, 32] was 34.7 mmHg. The “24-hour hypotensive amplitude (trough of systolic blood pressure reduction)” value [2, 32] was 9.1 mmHg, the “valley-peak ratio of Systolic Blood Pressure Reduction” value [2, 32] was 0.26 and the “2-hour hypotensive amplitude (peak of systolic blood pressure reduction)” value [2, 33] was 31.5 mmHg. For the same molecule, the “24-hour hypotensive amplitude (trough of systolic blood pressure reduction)” value [2, 33] was 7.2 mmHg, the “valley-peak ratio of Systolic Blood Pressure Reduction” value [2, 33] was 0.23 and the “2-hour hypotensive amplitude (peak of systolic blood pressure reduction)” value [2, 34] was 32.0 mmHg. The “24-hour hypotensive amplitude (trough of systolic blood pressure reduction)” value [2, 34] was 8.2 mmHg, the “valley-peak ratio of Systolic Blood Pressure Reduction” value [2, 34] was 0.26 and the “2-hour hypotensive amplitude (peak of systolic blood pressure reduction)” value [2, 35] was 34.1 mmHg. For the same molecule, the “24-hour hypotensive amplitude (trough of systolic blood pressure reduction)” value [2, 35] was 0.8 mmHg, the “valley-peak ratio of Systolic Blood Pressure Reduction” value [2, 35] was 0.02 and the “2-hour hypotensive amplitude (peak of systolic blood pressure reduction)” value [2, 36] was 35.5 mmHg. For the same molecule, the “24-hour hypotensive amplitude (trough of systolic blood pressure reduction)” value [2, 36] was 2.0 mmHg, the “valley-peak ratio of Systolic Blood Pressure Reduction” value [2, 36] was 0.06 and the “2-hour hypotensive amplitude (peak of systolic blood pressure reduction)” value [2, 37] was 31.0 mmHg. For the same molecule, the “24-hour hypotensive amplitude (trough of systolic blood pressure reduction)” value [2, 37] was 7.0 mmHg, the “valley-peak ratio of Systolic Blood Pressure Reduction” value [2, 37] was 0.23 and the “2-hour hypotensive amplitude (peak of systolic blood pressure reduction)” value [2, 38] was 34.0 mmHg. The “24-hour hypotensive amplitude (trough of systolic blood pressure reduction)” value [2, 38] was 10.3 mmHg, the “valley-peak ratio of Systolic Blood Pressure Reduction” value [2, 38] was 0.30 and the “2-hour hypotensive amplitude (peak of systolic blood pressure reduction)” value [2, 39] was 31.7 mmHg. The “24-hour hypotensive amplitude (trough of systolic blood pressure reduction)” value [2, 39] was 7.8 mmHg and the “valley-peak ratio of Systolic Blood Pressure Reduction” value [2, 39] was 0.25.

Source: patent publication US11369654B2, “Application method of Dendrobium candidum in preparing medicine for treating hypertension” (Hangzhou Danhe Pharmaceutical CO., Ltd., priority 2017, dated 2022)
